A value given as a limit tells only on which side of the number the result lay.

The target of the assay is T1, Vitronectin receptor αVβ3 (Homo sapiens, UniProt P05106+P06756).
T1 construct: expressed in transfected cells; host or cells: 512P5 cells (plasma membrane preparation)
The experiment in a line: Vitronectin Receptor αVβ3 Binding Assay. To be noted: read-out: VnR (IC50μM).

T1 sequence (P06756 31-889 limits assumed): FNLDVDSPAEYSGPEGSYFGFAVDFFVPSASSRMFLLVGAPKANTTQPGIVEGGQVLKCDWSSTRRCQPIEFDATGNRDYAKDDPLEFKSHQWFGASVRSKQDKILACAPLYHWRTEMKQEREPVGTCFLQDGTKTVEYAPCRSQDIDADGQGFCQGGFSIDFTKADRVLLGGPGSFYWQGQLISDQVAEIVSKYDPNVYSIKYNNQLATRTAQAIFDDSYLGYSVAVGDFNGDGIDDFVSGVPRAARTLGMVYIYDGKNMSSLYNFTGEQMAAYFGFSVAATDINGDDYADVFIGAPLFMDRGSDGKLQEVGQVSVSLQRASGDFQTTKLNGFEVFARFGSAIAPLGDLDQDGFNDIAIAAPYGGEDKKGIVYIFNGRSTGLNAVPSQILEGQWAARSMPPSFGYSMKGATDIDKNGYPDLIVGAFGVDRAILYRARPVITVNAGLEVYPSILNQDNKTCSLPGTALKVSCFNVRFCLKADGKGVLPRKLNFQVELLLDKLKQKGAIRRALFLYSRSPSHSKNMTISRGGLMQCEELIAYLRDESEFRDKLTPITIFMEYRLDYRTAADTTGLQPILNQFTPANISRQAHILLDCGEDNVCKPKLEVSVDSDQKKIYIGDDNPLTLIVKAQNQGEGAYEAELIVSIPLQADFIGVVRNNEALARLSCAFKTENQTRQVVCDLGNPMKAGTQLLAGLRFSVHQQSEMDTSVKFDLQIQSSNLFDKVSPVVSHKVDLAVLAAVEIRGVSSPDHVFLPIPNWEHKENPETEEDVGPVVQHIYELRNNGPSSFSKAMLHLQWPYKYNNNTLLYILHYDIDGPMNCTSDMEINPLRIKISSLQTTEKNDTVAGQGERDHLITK
T1 sequence (P06756 891-1048 partner limits assumed): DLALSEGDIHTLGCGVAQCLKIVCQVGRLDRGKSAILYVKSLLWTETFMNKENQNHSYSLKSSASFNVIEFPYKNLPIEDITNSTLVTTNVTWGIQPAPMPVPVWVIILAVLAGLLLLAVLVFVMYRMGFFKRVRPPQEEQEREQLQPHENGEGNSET
T1 sequence (P05106 27-788): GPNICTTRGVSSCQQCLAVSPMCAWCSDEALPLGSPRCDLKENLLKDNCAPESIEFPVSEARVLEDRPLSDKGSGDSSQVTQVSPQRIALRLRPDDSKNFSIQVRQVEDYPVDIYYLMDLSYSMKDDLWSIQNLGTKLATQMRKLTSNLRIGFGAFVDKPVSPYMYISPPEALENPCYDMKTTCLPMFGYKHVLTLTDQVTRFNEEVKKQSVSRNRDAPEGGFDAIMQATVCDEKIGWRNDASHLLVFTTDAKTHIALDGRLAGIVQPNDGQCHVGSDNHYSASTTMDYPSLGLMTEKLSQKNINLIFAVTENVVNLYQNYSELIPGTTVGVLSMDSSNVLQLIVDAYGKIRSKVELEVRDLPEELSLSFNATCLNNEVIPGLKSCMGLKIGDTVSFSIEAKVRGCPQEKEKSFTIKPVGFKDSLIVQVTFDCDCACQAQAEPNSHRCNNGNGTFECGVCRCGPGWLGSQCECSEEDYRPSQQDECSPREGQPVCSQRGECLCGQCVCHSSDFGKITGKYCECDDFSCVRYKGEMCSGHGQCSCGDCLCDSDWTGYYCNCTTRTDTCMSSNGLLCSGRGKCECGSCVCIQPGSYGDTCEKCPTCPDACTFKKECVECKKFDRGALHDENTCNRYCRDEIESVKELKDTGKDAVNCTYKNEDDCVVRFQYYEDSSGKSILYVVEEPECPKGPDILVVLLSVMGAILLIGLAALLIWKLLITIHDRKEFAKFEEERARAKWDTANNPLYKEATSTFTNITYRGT

For the compound `CCCCCCCCOC(=O)N[C@@H](CNC(=O)c1ccc(OCCNC2=NCCN2)cc1O)C(=O)O` [Example 105, (2S)-3-({4-[2-(4,5-dihydro-1H-imidazol-2-ylamino)ethoxy]-2-hydroxybenzoyl}-amino)-2-{[(octyloxy)carbonyl]amino}propanoic acid], the IC50 came to 0.135 µM.
As for `C=CCCOC(=O)N[C@@H](CNC(=O)c1ccc(OCCNC(=O)NCc2cccnc2)cc1O)C(=O)O` [Example 239, (2S)-2-{[(but-3-enyloxy)carbonyl]amino}-3-({2-hydroxy-4-[2-({[(pyridin-3-ylmethyl)amino]carbonyl}amino)ethoxy]benzoyl}amino)propanoic acid], the figure is 2.1 µM.
As for `CCCCOC(=O)N[C@@H](CNC(=O)c1ccc(OCCNC2=NCCN2)cc1O)C(=O)O` [Example 106, (2S)-2-[(butoxycarbonyl)amino]-3-({4-[2-(4,5-dihydro-1H-imidazol-2-ylamino)ethoxy]-2-hydroxybenzoyl}amino)propanoic acid], the IC50 is 0.114 µM.
In the case of `CC(C)(C)COC(=O)N[C@@H](CNC(=O)c1ccc(OCCNC2=NCCCCC2)cc1O)C(=O)O` [Example 142, (2S)-3-({2-hydroxy-4-[2-(3,4,5,6-tetrahydro-2H-azepin-7-ylamino)ethoxy]benzoyl}amino)-2-{[(neopentyloxy)carbonyl]amino}propanoic acid], the IC50 stood at 1.6 µM.
As for `C#CCCC(=O)N[C@@H](CNC(=O)c1ccc(OCCNC(=N)N)cc1O)C(=O)O` [Example 197, (2S)-3-{[4-(2-{[amino(imino)methyl]amino}ethoxy)-2-hydroxybenzoyl]amino}-2-(pent-4-ynoylamino)propanoic acid], the figure is greater than 1 µM; as for `O=C(N[C@@H](CNC(=O)c1ccc(OCCNC2=NCCN2)cc1O)C(=O)O)c1ccc(Cl)cc1` [Example 134, (2S)-2-[(4-chlorobenzoyl)amino]-3-({4-[2-(4,5-dihydro-1H-imidazol-2-ylamino) -ethoxy]-2-hydroxybenzoyl}amino)propanoic acid], greater than 1 µM.
For the compound `CC(C)OC(=O)N[C@@H](CNC(=O)c1ccc(OCCNC2=NCCCN2)cc1O)C(=O)O` [Example 5, (2S)-3-({2-hydroxy-4-[2-(1,4,5,6-tetrahydropyrimidin-2-ylamino)ethoxy]benzoyl}-amino)-2-[(isopropoxycarbonyl)amino]propanoic acid], the IC50 was 0.061 µM.
As for `O=C(NC1CCCCC1)N[C@@H](CNC(=O)c1ccc(OCCNC2=NCCCN2)cc1O)C(=O)O` [Example 21, (2S)-2-{[(cyclohexylamino)carbonyl]amino}-3-({2-hydroxy-4-[2-(1,4,5,6-tetrahydropyrimidin-2-ylamino)ethoxy]benzoyl}amino)propanoic acid], the figure is 1.52 µM.
The result for `Cc1ccccc1NC(=O)N[C@@H](CNC(=O)c1ccc(OCCNc2ncccn2)cc1O)C(=O)O` [Example 78, (2S)-3-({2-hydroxy-4-[2-(pyrimidin-2-ylamino)ethoxy]benzoyl}amino)-2-[(2-toluidinocarbonyl)amino]propanoic acid] reads greater than 1 µM; that for `C=CCOC(=O)N[C@@H](CNC(=O)c1ccc(OCCNc2ncccn2)cc1O)C(=O)O` [Example 69, (2S)-2-{[(allyloxy)carbonyl]amino}-3-({2-hydroxy-4-[2-(pyrimidin-2-ylamino)ethoxy]benzoyl}amino)propanoic acid], 100 µM; that for `O=C(NCCOc1ccc(C(=O)NC[C@H](NC(=O)OCc2ccccc2)C(=O)O)c(O)c1)NCc1ccccc1Br` [Example 269, (2S)-2-{[(benzyloxy)carbonyl]amino}-3-({4-[2-({[(2-bromobenzyl)amino]-carbonyl}-amino)ethoxy]-2-hydroxybenzoyl}amino)propanoic acid], 21.2 µM.
The result for `N=C(N)NCCOc1ccc(C(=O)NC[C@H](NC(=O)NCc2ccccc2)C(=O)O)c(O)c1` [Example 185, (2S)-3-{[4-(2-{[amino(imino)methyl]amino}ethoxy)-2-hydroxybenzoyl]amino}-2-{[(benzylamino)carbonyl]amino}propanoic acid] reads 4.57 µM; that for `O=C(NC[C@H](NC(=O)c1ccccc1Br)C(=O)O)c1ccc(OCCNC2=NCCN2)cc1O` [Example 138], 0.361 µM; that for `N=C(N)NCCOc1ccc(C(=O)NC[C@H](NC(=O)Nc2ccccc2-c2ccccc2)C(=O)O)c(O)c1` [Example 177], 4.87 µM.
`N=C(N)NCCOc1ccc(C(=O)NC[C@H](NC(=O)Nc2ccccc2)C(=O)O)c(O)c1` [Example 189, (2S)-3-{[4-(2-{[amino(imino)methyl]amino}ethoxy)-2-hydroxybenzoyl]amino}-2-[(anilinocarbonyl)amino]propanoic acid]: the IC50 stood at 6.87 µM.
As to `COc1ccc(C(=O)N[C@@H](CNC(=O)c2ccc(OCCNC(=N)N)cc2O)C(=O)O)cc1` [Example 208, (2S)-3-{[4-(2-{[amino(imino)methyl]amino}ethoxy)-2-hydroxybenzoyl]amino-}-2-[(4-methoxybenzoyl)amino]propanoic acid], the IC50 is greater than 1 µM.
The result for `O=C(Nc1ccccc1)N[C@@H](CNC(=O)c1ccc(OCCNC2=NCCCN2)cc1O)C(=O)O` [Example 20, (2S)-2-[(anilinocarbonyl)amino]-3-({2-hydroxy-4-[2-(1,4,5,6-tetrahydropyrimidin-2-ylamino)ethoxy]benzoyl}amino)propanoic acid] reads 1.44 µM.
As for `CC(C)(C)COC(=O)N[C@@H](CNC(=O)c1ccc(OCCNC(=O)NCc2ccncc2)cc1O)C(=O)O` [Example 257, (2S)-3-({2-hydroxy-4-[2-({[(pyridin-4-ylmethyl)amino]carbonyl}-amino)ethoxy]-benzoyl}amino)-2-{[(neopentyloxy)carbonyl]amino}propanoic acid], the figure is 1.26 µM.
Take `CCCC(=O)N[C@@H](CNC(=O)c1ccc(OCCNC(=N)N)cc1O)C(=O)O` [Example 191, (2S)-3-{[4-(2-{[amino(imino)methyl]amino}ethoxy)-2-hydroxybenzoyl]amino}-2-(butyrylamino)propanoic acid]: the IC50 was greater than 1 µM.
Consider `CC(C)C(=O)N[C@@H](CNC(=O)c1ccc(OCCNC(=N)N)cc1O)C(=O)O` [Example 190, (2S)-3-{[4-(2-{[amino(imino)methyl]amino}ethoxy)-2-hydroxybenzoyl]amino}-2-(isobutyrylamino)propanoic acid], for which the IC50 was greater than 1 µM.
`CN(C)c1ccc(CNC(=O)NCCOc2ccc(C(=O)NC[C@H](NC(=O)OCc3ccccc3)C(=O)O)c(O)c2)cc1` [Example 264, (2S)-2-{[(benzyloxy)carbonyl]amino}-3-[(4-{2-[({[4-(dimethylamino)benzyl]-amino}carbonyl)amino]ethoxy}-2-hydroxybenzoyl)amino]propanoic acid]: the IC50 worked out at 59.3 µM.
`CC(=O)c1ccc(NC(=O)N[C@@H](CNC(=O)c2ccc(OCCNC(=N)N)cc2O)C(=O)O)cc1` [Example 182, (2S)-2-{[(4-acetylanilino)carbonyl]amino}-3-{[4-(2-{[amino(imino)methyl]-amino}ethoxy)-2-hydroxybenzoyl]amino}propanoic acid]: the IC50 worked out at 40.9 µM.
Take `CCCCC(=O)N[C@@H](CNC(=O)c1ccc(OCCNC2=NCCN2)cc1O)C(=O)O` [Example 121, (2S)-3-({4-[2-(4,5-dihydro-1H-imidazol-2-ylamino)ethoxy]-2-hydroxybenzoyl}-amino)-2-(pentanoylamino)propanoic acid]: the IC50 is greater than 1 µM.
Take `O=C(N[C@@H](CNC(=O)c1ccc(OCCNc2ncccn2)cc1O)C(=O)O)Oc1ccccc1` [Example 54, (2S)-3-({2-hydroxy-4-[2-(pyrimidin-2-ylamino)ethoxy]benzoyl}amino)-2-[(phenoxycarbonyl)amino]propanoic acid]: the IC50 was found to be 34 µM.
As for `O=C(Cc1ccccc1)N[C@@H](CNC(=O)c1ccc(OCCNC2=NCCN2)cc1O)C(=O)O` [Example 127, (2S)-3-({4-[2-(4,5-dihydro-1H-imidazol-2-ylamino)ethoxy]-2-hydroxybenzoyl}-amino)-2-[(2-phenylacetyl)amino]propanoic acid], the figure is 0.955 µM; as for `N=C(N)NCCOc1ccc(C(=O)NC[C@H](NC(=O)C2CCCCC2)C(=O)O)c(O)c1` [Example 198, (2S)-3-{[4-(2-{[amino(imino)methyl]amino}ethoxy)-2-hydroxybenzoyl]amino}-2-[(cyclohexylcarbonyl)amino]propanoic acid], greater than 1 µM; as for `O=C(Nc1ccc(OC(F)(F)F)cc1)N[C@@H](CNC(=O)c1ccc(OCCNc2ncccn2)cc1O)C(=O)O` [Example 85, (2S)-3-({2-hydroxy-4-[2-(pyrimidin-2-ylamino)ethoxy]benzoyl}amino)-2-({[4-(trifluoromethoxy)anilino]carbonyl}amino)propanoic acid], greater than 1 µM.
The result for `N=C(N)NCCOc1ccc(C(=O)NC[C@H](NC(=O)NC2CCCCC2)C(=O)O)c(O)c1` [Example 183, (2S)-3-{[4-(2-{[amino(imino)methyl]amino}ethoxy)-2-hydroxybenzoyl]amino}-2-{[(cyclohexylamino)carbonyl]amino}propanoic acid] reads 4.98 µM.
As for `O=C(N[C@@H](CNC(=O)c1ccc(OCCNC2=NCCCN2)cc1O)C(=O)O)OCc1ccccc1` [Example 14, (2S)-2-{[(benzyloxy)carbonyl]amino}-3-({2-hydroxy-4-[2-(1,4,5,6-tetrahydropyrimidin-2-ylamino)ethoxy]benzoyl}amino)propanoic acid], the figure is 0.0445 µM; as for `CCCOC(=O)N[C@@H](CNC(=O)c1ccc(OCCNC(=N)N)cc1O)C(=O)O` [Example 160, (2S)-3-{[4-(2-{[amino(imino)methyl]amino}ethoxy)-2-hydroxybenzoyl]amino}-2-[(propoxycarbonyl)amino]propanoic acid], 0.97 µM.
In the case of `Cc1ccccc1C(=O)N[C@@H](CNC(=O)c1ccc(OCCNC2=NCCN2)cc1O)C(=O)O` [Example 132, (2S)-3-({4-[2-(4,5-dihydro-1H-imidazol-2-ylamino)ethoxy]-2-hydroxybenzoyl}amino)-2-[(2-methylbenzoyl)amino]propanoic acid], the IC50 was 0.963 µM.

(Values after patent publication US20030186967A1, “Acylresorcinol derivatives are selective vitronectin receptor inhibitors” (American Home Products Corporation, priority 1998, published 2003).)
